Data taken from patent publication US11439646B2, “Anti-proliferative agents for treating PAH” (Pfizer Inc., priority 2016, dated 2022).

Tests used:
rat Su5416/Hx PAH model = assay: Rat SuHx (Su5416/hypoxia)-induced PAH model (hemodynamics, histomorphometry, IHC); assay type: in vivo; conditions: for lung weight vs vehicle/Su5416/Hx group / vessel-associated Ki67+ cells in the pulmonary vasculature (IHC) / vessel-associated pRb+ cells in the pulmonary vasculature (IHC): days 7 to 28; for MPAP: days 7 to 28, FIG. 4b; for Fulton Index: days 7 to 28, FIG. 4c; for muscularized intra-acinar vessel density relative to vehicle/Su5416/Hx group: days 7 to 28, FIG. 4e; for DPAP: days 7 to 28, FIG. 4i; for heart weight vs vehicle/Su5416/Hx group: days 7 to 28, FIG. 4j; for average vessel wall thickness, intra-acinar and pre-acinar vessels: days 7 to 28, FIG. 4d
Description: SuHx-induced Pulmonary Arterial Hypertension: Sprague-Dawley rats were obtained from Charles River Laboratories (200-300 g; vehicle control, n=5; all other groups, n=10). Rats received Semaxinib dissolved in DMSO on day 0, followed by housing in low (13%) oxygen until day 28. Sildenafil (30 mg/kg/dose; BID), Riociguat (10 mg/kg, QD) or Palbociclib (100 mg/kg; QD) was administered in vehicle (0.5% methylcellulose) from days 7-28. Terminal hemodynamic evaluations and necropsy were conducted on day 28 in a manner similar to the MCT study.
Hemodynamic measurements Su/Hx study: On day 28, animals were anesthetized via intramuscular injection of ketamine/xylazine (80/10 mg/kg). A Millar catheter was inserted into the pulmonary artery and pulmonary pressure and hemodynamics were measured as described by Stringer et al., (1981) Catheterization of the pulmonary artery in the closed-chest rat. J. Appl. Physiol. 51, 1047-1050. Hemodynamic values were calculated using the NOTOCORD-Hem software (NOTOCORD, Inc., Croissy sur Sienne, France) (CorDynamics).
(§1) Measurement of RV hypertrophy. After collection of the heart at necropsy, the atria and great vessels were removed. The RV was separated from the LV and S. The wet weights of the RV and LV+S were measured to calculate the Fulton Index.
(§2) Tissue preparation. Under anesthesia, the animals were exsanguinated, and the pulmonary circulation flushed with oxygenated (animals from Example 3 [MCT]) or heparizined (animals from Example 4 [Su5416/Hx]) saline. Trachea, lungs, and heart were removed intact from thoracic cavity and placed in ice-cold saline. Right lung lobes were removed, weighed, and immediately flash frozen in liquid nitrogen. A 10 mL syringe filled with fixative (10% NBF) with attached blunt tip needle (20 g) was used to inflate the left lung lobe and the airway was tied off to keep it consistently expanded. The left lung was then immersion fixed in 10% NBF for 48 hrs and then transferred to 70% EtOH for ≤5 days.
(§3) Histomorphometric analysis. Three, 3-5 μm thick, transverse sections of the left lung lobe were used for histomorphometric analysis. Overall disease severity scores were determined by light microscopic evaluation of hematoxylin and eosin (H&E)-stained lung sections by a board-certified veterinary pathologist. Scores ranged from 0 (absent), 1 (minimal), 2 (mild), 3 (moderate), 4 (marked) to 5 (severe) and were assigned according to the approximate percentage of the tissue affected by the tissue changes (inflammatory, degenerative, vascular and/or proliferative) characteristic of the PAH model. Average vessel wall thickness was evaluated using lung sections prepared with a modified Verhoeff-van Gieson elastin stain. Image analysis was performed using random field sampling (Visiopharm newCAST) of 10% of tissue area with observer-assisted identification of intra-acinar and pre-acinar vessels and application of a nucleator probe to measure vessel wall thickness. Fully muscularized intra-acinar vessel density was evaluated in a similar manner using dual αSMA/Ki67 IHC-stained sections and observer-assisted counting of ≥70% muscularized (i.e. SMA^+), transversely sectioned, ≤50 μm external diameter, intra-acinar vessels with an identifiable lumen. Vessel-associated Ki67^+ and pRb^+ cells were counted in αSMA/Ki67 IHC-and CD31/pRb IHC-stained lung sections, respectively, using random field sampling of 10% of tissue area and observer-assisted identification of Ki67^+ or pRb^+ cells associated with the walls (i.e. in the intima or media) of vessels 100 μm external diameter.
Immunohistochemistry. Dual α-SMA/Ki67 nuclear antigen: All IHC steps were performed on 3 μm-thick, formalin-fixed, paraffin-embedded (FFPE) sections on Leica Bond Rx automated immunohistochemistry stainer. The instrument was programmed to bake and dewax the slides. […]

hPASMC = assay: EdU cell proliferation assay, hPASMC; assay type: cell-based; conditions: Homo sapiens, 5% FBS, N = 6, FIG. 1e, read-out: hPASMC IC50 (nM), inhibition of proliferation
Description: (§4) Alternatively, rather than using BrdU, EdU (5-ethynyl-2′-deoxyuridine) can be used. Cells were first pre-incubated with different concentrations of the CDK inhibitor for 30 minutes, and then 5% FBS was added to stimulate cell proliferation. Cells were maintained for 24 h before the proliferation rate was evaluated using EDU Click-iT EdU Alexa Fluor® 647 HCS Assay (Thermofisher Scientific, USA). EdU was added to the medium 16 h before the quantification of EdU incorporation. Proliferation was quantified by scanning the 96-well plates using automated high content imaging platform equipped with appropriate fluorescence microscopic filters for DAPI (4′,6-Diamidino-2-Phenylindole) or Hoechst stain and Cyanine5 dyes as part of the Click-iT assay. Proliferating EdU positive cells detected at Cyanine5 were quantified and normalized to total cell number per well where the total cell number per cell was identified by DAPI or Hoechst signal. The % effect was then calculated:
(§5) The average (avg) amount (amt) of proliferating cells per concentration of CDK inhibitor with FBS present.
(§6) The minimum amount of proliferation (min amt of prolif'n) is based on cell numbers in the wells where FBS is not added and no CDK inhibitor is present.
(§7) The maximum amount of proliferation (max amt of prolif'n) is based on cell numbers in the wells where FBS is added and no CDK inhibitor is present.

hPAAF = assay: EdU cell proliferation assay, hPAAF; assay type: cell-based; conditions: Homo sapiens, 5% FBS, N = 6, FIG. 1f, read-out: hPAAF IC50 (nM), inhibition of proliferation
Description: as §4, §5, §6, §7

rPASMC = assay: EdU cell proliferation assay, rPASMC; assay type: cell-based; conditions: Rattus norvegicus, 5% FBS, N = 6, FIG. 1g, read-out: rPASMC IC50 (nM), inhibition of proliferation
Description: as §4, §5, §6, §7

phospho-Rb (Ser807/811) = assay: In-cell western analysis of Rb phosphorylation in human PASMCs; assay type: cell-based; conditions: Homo sapiens, PASMC; 10% FBS; N = 6; FIG. 2c; read-out: Average IC50 (nM), inhibition of phosphorylation of Rb in hPASMCs
Description: In-cell western analysis. Primary PASMCs from normal human subjects were cultured and serum-starved as described above. Cells were first pre-incubated with different concentrations of palbociclib for 60 minutes, and then either 5% FBS or 10% FBS or 30 ng/ml PDGF-BB was added to stimulate cell proliferation and Rb phosphorylation. The effect of Palbociclib on Rb phosphorylation was evaluated 24 h later, using in-cell western assay according to the manufacturer's instructions (Li-Cor Biosciences, Lincoln, Nebr., USA). Phosphorylated Rb was measured using a rabbit monoclonal antibody anti-phospho-Rb (Ser807/811) (Cell Signaling Technology, Inc., Danvers, Mass., USA), followed by detection with IRDye 800CW infrared fluorescent dye-labeled goat anti-rabbit secondary antibody. Actin levels were measured using mouse anti-actin monoclonal antibodies (pan Ab-5) (Fisher Scientific Pittsburgh, Pa., USA; Sigma Aldrich, St. Louis, Mo., USA), and followed by detection with IRDye 680RD-labeled goat anti-mouse secondary antibody. See FIG. 2a where 5% FBS was used, FIG. 2b where PDGF-BB was used, and FIG. 2c where 10% FBS was used.

[1] = system: Rat MCT-induced PAH Model; assay: Rat MCT-induced PAH model (hemodynamics, histomorphometry, IHC); assay type: in vivo
Description: Rat MCT-induced PAH Model: Male Sprague-Dawley rats (Charles River Laboratories) (260-280 g; vehicle control group, n=6; all other groups, n=15) received MCT (50 mg/kg, SC; 1 ml/kg BVV) dissolved in vehicle (33.3% 1 N HCl, 14.8% 1 N NaOH, 52.2% diH2O) or vehicle alone on day 0. Sildenafil (50 mg/kg/dose; BID) was administered (5 ml/kg, PO) either prophylactically from days 0-28 or therapeutically from days 14-28. Palbociclib (100 mg/kg; QD) was administered therapeutically (days 14-28). Both sildenafil and palbociclib were resuspended in vehicle (0.5% methylcellulose) and administered orally (5 ml/kg). On day 28, animals were anesthetized via isoflurane, hemodynamic parameters were evaluated, and tissues harvested after euthanasia.
Hemodynamic measurements—monocrotaline (MCT) study: On day 28, animals were anesthetized via 2% isofluorane in positive pressure ventilator. Pulmonary hemodynamics were measured using a pre-calibrated pressure transducer in isoflurane positive-pressure ventilated animals. Steady-state pulmonary and systemic arterial pressures were measured using a Millar Solid State Mikro-tip catheter (Millar Instruments, Houston, Tex.) introduced to the pulmonary arterial trunk at the level of the aortic arch via the right carodid artery. Hemodynamic values were automatically calculated by the physiological data acquisition system, ADI Chart (ADI Instruments, Colorado Springs, Colo.) (Plato BioPharma).
as §1, §2, §3
Immunohistochemistry. […]

[2] = day 0-28, score scale 0-5, FIG. 3g

| Structure (SMILES) | lung weight vs vehicle/Su5416/Hx group (rat Su5416/Hx PAH model) | vessel-associated Ki67+ cells in the pulmonary vasculature (IHC) (rat Su5416/Hx PAH model) | vessel-associated pRb+ cells in the pulmonary vasculature (IHC) (rat Su5416/Hx PAH model) | MPAP (rat Su5416/Hx PAH model) | Fulton Index (rat Su5416/Hx PAH model) | muscularized intra-acinar vessel density relative to vehicle/Su5416/Hx group (rat Su5416/Hx PAH model) | DPAP (rat Su5416/Hx PAH model) | heart weight vs vehicle/Su5416/Hx group (rat Su5416/Hx PAH model) | average vessel wall thickness, intra-acinar and pre-acinar vessels (rat Su5416/Hx PAH model) | IC50 (hPASMC) [nM] | IC50 (hPAAF) [nM] | IC50 (rPASMC) [nM] | IC50 (phospho-Rb (Ser807/811)) [nM] | also measured |
| --- | --- | --- | --- | --- | --- | --- | --- | --- | --- | --- | --- | --- | --- | --- |
| COC(=O)N(C)c1c(N)nc(-c2nn(Cc3ccccc3F)c3ncccc23)nc1N [Riociguat] | no change | no significant beneficial effect | no significant beneficial effect | significantly reduced | only a slight reduction | not statistically significantly different | significantly reduced | no change | not |  |  |  |  |  |
| CCN1CCN(Cc2ccc(Nc3ncc(F)c(-c4cc(F)c5nc(C)n(C(C)C)c5c4)n3)nc2)CC1 [Abemaciclib, 2-pyrimidinamine, N-(5-((4-ethyl-1-piperazinyl)methyl)-2-pyridinyl)-5-fluoro-4-(4-fluoro-2-methyl-1-(1-methylethyl)-1H-benzimidazol-6-yl)] |  |  |  |  |  |  |  |  |  | 6.5 | 1.2 | 13 | 262 |  |
| CN(C)C(=O)c1cc2cnc(Nc3ccc(N4CCNCC4)cn3)nc2n1C1CCCC1 [Ribociclib, 7-cyclopentyl-N, N-dimethyl-2-((5-(piperazin-1-yl)pyridin-2-yl)amino)-7H-pyrrolo[2,3-d]pyrimidine-6-carboxamide] |  |  |  |  |  |  |  |  |  | 0.5 | 0.8 | 28.6 | 352 |  |
| CCCc1nn(C)c2c(=O)[nH]c(-c3cc(S(=O)(=O)N4CCN(C)CC4)ccc3OCC)nc12 [Sildenafil] | no change | no significant beneficial effect | no significant beneficial effect | significantly reduced | only a slight reduction | not statistically significantly different | significantly reduced | no change | not |  |  |  |  | density of fully muscularized intra-acinar vessels (αSMA staining) ([1]; day 0-28, FIG. 3e): effective; average vessel wall thickness relative to vehicle/MCT group ([1]; day 0-28, FIG. 3d): 0.76 x MCT; disease severity scores, mean [1, 2]: 2.5; disease severity scores, range [1, 2]: 1-4; average vessel wall thickness (elastin staining), intra-acinar and pre-acinar pulmonary arteries, relative to vehicle/MCT group ([1]; day 14-28, FIG. 3d): little effect; PAH-related increase in MPAP ([1]; dosed prophylactically day 0-28, sildenafil 50 mg/kg/dose PO BID, FIG. 3b): significantly reduced; PAH-related increase in Fulton Index ([1]; prophylactic day 0-28, FIG. 3c): significantly reduced; PAH-related increase in DPAP ([1]; prophylactic day 0-28, FIG. 3i): significantly reduced; PAH-related increase in heart weight ([1]; prophylactic day 0-28, FIG. 3j): significantly reduced; PAH-related increase in SPAP ([1]; prophylactic day 0-28, FIG. 3h): significantly reduced; DPAP ([1]; therapeutic day 14-28): small and non-significant reduction; Fulton Index ([1]; therapeutic day 14-28): small and non-significant reduction; MPAP ([1]; therapeutic day 14-28): small and non-significant reduction; SPAP ([1]; therapeutic day 14-28): small and non-significant reduction; heart weight ([1]; therapeutic day 14-28): small and non-significant reduction; SPAP (rat Su5416/Hx PAH model; days 7 to 28, FIG. 4h): significantly reduced |
